Data on 39 compounds can be found in article PMC10357944 (RSC Medicinal Chemistry, 2023).

In one data set the test system is T. cruzi trypomastigotes. The arrangement: method as in our previous work. To be noted: ref our previous work; cited from earlier work.
The test system of data set [1] is Leishmania (L.) infantum intracellular amastigotes. Nature of the data set: Anti-L. (L.) infantum activity in vitro, intracellular amastigotes in peritoneal macrophages, infection index. The format is cell-based. To be noted: L. (L.) infantum intracellular amastigotes in BALB/c peritoneal macrophages, 96 h treatment, NA = inactive. As to the method:
The synthesized compounds were evaluated for their anti-L. (L.) infantum activity on intracellular amastigotes following 96 h treatment, with standard drug miltefosine used as a control. […] Leishmania (L.) infantum (MHOM/BR/1972/LD) amastigotes were obtained by differential centrifugation from golden hamsters (Mesocricetus auratus) spleens with 60–70 days of infection and the number of parasites was determined by the Stauber method.[18] Murine conjunctive fibroblasts NCTC clone 929 (ATCC) were maintained in RPMI-1640 medium supplemented with 10% FBS at pH 7.2 and 37 °C in a humidified incubator with 5% CO2. Peritoneal macrophages were by obtained by washing the peritoneal cavity of BALB/c mice with RPMI-1640 medium supplemented with 10% FBS, pH 7.2 and maintained at 37 °C in a humidified incubator with 5% CO2. Peritoneal macrophages (1 × 10^5/well) were added in 16-well slide chambers (NUNC) and incubated overnight at 37 °C with 5% CO2. Subsequently, the cells were infected with L. (L.) infantum amastigotes (10 : 1 amastigotes/macrophage) for 24 h, treated with compounds serially diluted (6.25 to 50 μM) and incubated for 96 h at 37 °C with 5% CO2. Miltefosine was used as standard drug and untreated cells as a negative control. Slides were fixed with methanol, stained with Giemsa and observed under a light microscope.[19] […] The determination of CC50 and IC50 values was performed by sigmoid dose–response curves using the Graph Pad Prism 5 software. The samples were tested in duplicate and the assays were reproduced at least twice.

Data set [2] is described as follows: Mammalian toxicity in vitro, MTT colorimetric method. In kind it is cell-based, Murine. To be noted: mouse, NCTC clone 929 fibroblasts, pH 7.2, NCTC clone 929 cells, up to 200 μM. As to the method:
The synthesized compounds were evaluated for their anti-L. (L.) infantum activity on intracellular amastigotes following 96 h treatment, with standard drug miltefosine used as a control. […] Leishmania (L.) infantum (MHOM/BR/1972/LD) amastigotes were obtained by differential centrifugation from golden hamsters (Mesocricetus auratus) spleens with 60–70 days of infection and the number of parasites was determined by the Stauber method.[18] Murine conjunctive fibroblasts NCTC clone 929 (ATCC) were maintained in RPMI-1640 medium supplemented with 10% FBS at pH 7.2 and 37 °C in a humidified incubator with 5% CO2. Peritoneal macrophages were by obtained by washing the peritoneal cavity of BALB/c mice with RPMI-1640 medium supplemented with 10% FBS, pH 7.2 and maintained at 37 °C in a humidified incubator with 5% CO2. NCTC cells (6 × 10^4/well) were added to 96-well plates and maintained at 37 °C in a 5% CO2 humidified incubator for 96 h with compounds serially diluted (1.6 to 200 μM). […] The determination of CC50 and IC50 values was performed by sigmoid dose–response curves using the Graph Pad Prism 5 software. The samples were tested in duplicate and the assays were reproduced at least twice.
A general note: Tetrazolium assays rely on reduction of a dye to a coloured formazan, in cell work by metabolically active cells.

Regarding `C=CCc1ccc(Oc2cc(CC=C)cc(OC)c2OCc2ccc(OC)cc2)c(OC)c1` [Compound 1], the “activity against T. cruzi trypomastigotes” value with T. cruzi trypomastigotes is 4.0 ± 1.4 µM. Moreover, the “IC50 (μM) ± SD” value in data set [1] was “inactive”. The CC50 (usually the concentration giving 50% cytotoxicity) at 96 h in data set [2] was greater than 200 µM.
Turning to `C=CCc1ccc(Oc2cc(CC=C)cc(OC)c2OCOC)c(OC)c1` [Compound 2], in data set [2], the CC50 at 96 h is greater than 200 µM.
Regarding `C=CCc1ccc(Oc2cc(CC=C)cc(OC)c2OCCN2CCCC2)c(OC)c1` [Compound 4], in data set [1] (Peritoneal macrophage, 96 h), 4.1 ± 1.1 µM corresponded to half-maximal inhibition (IC50). In data set [2], this compound had a CC50 at 96 h of 24.9 ± 2.6 µM.
The matching figures for `C=CCc1ccc(Oc2cc(CC=C)cc(OC)c2OCCN2CCOCC2)c(OC)c1` [Compound 5]: 9.6 ± 3.6 µM and 63.7 ± 0.2 µM.
The matching figures for `C=CCc1ccc(Oc2cc(CC=C)cc(OC)c2OCC(=O)N2CCCC2)c(OC)c1` [Compound 6]: 20.3 ± 5.9 µM and 52.9 ± 15.2 µM.
In data set [2], `C=CCc1ccc(Oc2cc(CC=C)cc(OC)c2OCC(=O)N2CCOCC2)c(OC)c1` [Compound 7] registered a CC50 at 96 h of 112 ± 8.2 µM.
The same measure, in the same setting: the figure for `C=CCc1cc(OC)cc(Oc2ccc(CC=C)cc2OC)c1` [Compound 8] is greater than 200 µM.
For `C=CCc1cc(OC)c(OCc2ccc(OC)cc2)c(Oc2ccccc2OC)c1` [Compound 9], in data set [1] (Peritoneal macrophage, 96 h), half-maximal inhibition (IC50) required 24.2 ± 18.2 µM. This compound came in with a CC50 at 96 h in data set [2] greater than 200 µM.
`C=CCc1ccc(Oc2cccc(OC)c2OCc2ccc(OC)cc2)c(OC)c1` [Compound 10] returned a CC50 at 96 h in data set [2] greater than 200 µM.
Consider `C=CCc1cc(OC)c(OC(C)=O)c(Oc2ccccc2OC)c1` [Compound 11], for which, in data set [1] (Peritoneal macrophage, 96 h), the half-maximal inhibitory concentration (IC50) (usually the concentration that inhibits the measured activity by half) was found to be 32.7 ± 5 µM. In data set [2], this compound yielded a CC50 at 96 h greater than 200 µM.
With `C=CCc1ccc(Oc2cccc(OC)c2OC(C)=O)c(OC)c1` [Compound 12], the CC50 at 96 h in data set [2] is greater than 200 µM.
Same read-out and setting: as for `C=CCc1cc(OC)c(OC)c(Oc2ccccc2OC)c1` [Compound 13], the figure is greater than 200 µM.
In data set [2], `C=CCc1ccc(Oc2cccc(OC)c2OC)c(OC)c1` [Compound 14] displayed a cytotoxic concentration (CC50) at 96 h greater than 200 µM.
On the same count and under the same terms, the figure for `C=CCc1cc(OC)c(O)c(Oc2ccccc2OC)c1` [Compound 15] is 31.6 ± 11.3 µM; for `C=CCc1ccc(Oc2cccc(OC)c2O)c(OC)c1` [Compound 16] it is greater than 200 µM.
In data set [2], `C=CCc1cc(OC)c(O)c(Oc2ccc(CCC)cc2OC)c1` [Compound 17] came in with a CC50 at 96 h of 42 ± 3.8 µM.
Same read-out and setting: the figure for `C=CCc1ccc(Oc2cc(CCC)cc(OC)c2O)c(OC)c1` [Compound 18] is 14.2 ± 0.1 µM; for `C=CCc1cc(OC)c(OC)c(Oc2ccc(CCC)cc2OC)c1` [Compound 19] it is greater than 200 µM.
On the same count and under the same terms, as for `C=CCc1cc(OC)c(OCc2ccc(OC)cc2)c(Oc2ccc(CCC)cc2OC)c1` [Compound 20], the figure is greater than 200 µM.
Same read-out and setting: as for `C=CCc1ccc(Oc2cc(CCC)cc(OC)c2OCc2ccc(OC)cc2)c(OC)c1` [Compound 21], the figure is greater than 200 µM; as for `CCCc1ccc(Oc2cc(CCC)cc(OC)c2OCc2ccc(OC)cc2)c(OC)c1` [Compound 22], greater than 200 µM.
As for `C=CCc1cc(OC)c(OCc2ccc(OC)cc2)c(Oc2ccc(CN3CCCC3)cc2OC)c1` [Compound 23], the half-maximal cytotoxic concentration (CC50) at 96 h in data set [2] was determined as 6.2 ± 1.2 µM.
Consider `C=CCc1cc(OC)c(OCc2ccc(OC)cc2)c(Oc2ccc(CN3CCOCC3)cc2OC)c1` [Compound 24], for which 9.7 ± 2 µM corresponded to half-maximal inhibition in data set [1] (Peritoneal macrophage, 96 h) (IC50). In data set [2], this compound yielded a CC50 at 96 h greater than 200 µM.
As to `CCCc1cc(OC)c(OCc2ccc(OC)cc2)c(Oc2ccc(CN3CCOCC3)cc2OC)c1` [Compound 25], half-maximal inhibition in data set [1] (Peritoneal macrophage, 96 h) (IC50) required 7.7 ± 0.8 µM. It took 74.4 ± 4.4 µM to reach half-maximal cytotoxicity in data set [2] (CC50 at 96 h).
With `CCCc1cc(OC)c(OCc2ccc(OC)cc2)c(Oc2ccc(CN3CCCCC3)cc2OC)c1` [Compound 26], the IC50 in data set [1] was 3.7 ± 0.5 µM; in data set [1] (Peritoneal macrophage, 96 h) it was roughly 3 µM. Half-maximal cytotoxicity in data set [2] (CC50 at 96 h) was put at 14.5 ± 0.2 µM.
For `COc1ccc(COc2c(OC)cc(CN3CCOCC3)cc2Oc2ccc(CN3CCOCC3)cc2OC)cc1` [Compound 27], it took 27.8 ± 7.4 µM to reach half-maximal inhibition in data set [1] (Peritoneal macrophage, 96 h) (IC50). Further, the CC50 at 96 h in data set [2] was found to be 74.4 ± 5.8 µM.
The matching figures for `CCCc1ccc(Oc2cc(CN3CCOCC3)cc(OC)c2OCc2ccc(OC)cc2)c(OC)c1` [Compound 28]: 16.4 ± 4.3 µM and greater than 200 µM.
The matching figures for `CCCc1ccc(Oc2cc(CN3CCOCC3)cc(OC)c2OCc2ccc(C(F)(F)F)cc2)c(OC)c1` [Compound 29]: 13.2 ± 2.1 µM and greater than 200 µM.
In data set [1] (Peritoneal macrophage, 96 h), `CCCc1ccc(Oc2cc(CN3CCOCC3)cc(OC)c2OCc2cc(OC)c(OC)c(OC)c2)c(OC)c1` [Compound 30] returned an IC50 of 26.3 ± 3.2 µM. Also, the CC50 at 96 h in data set [2] was greater than 200 µM.
For `C=CCc1cc(OC)c(O)c(Oc2ccc(CN3CCOCC3)cc2OC)c1` [Compound 31], in data set [1], the “IC50 (μM) ± SD” value is listed as “no anti-parasitic activity”. For the same compound, in data set [2], the CC50 at 96 h came out at 51.4 ± 4.7 µM.
In the same order, the values of `C=CCc1cc(OC)c(O)c(Oc2ccc(CN3CCCC3)cc2OC)c1` [Compound 32] are “no anti-parasitic activity” and 43.3 ± 5.3 µM.
Regarding `CCCc1ccc(Oc2cc(CN3CCCCC3)cc(OC)c2OCc2ccc(OC)cc2)cc1` [Compound 33], the IC50 in data set [1] (Peritoneal macrophage, 96 h) was roughly 3 µM. Moreover, in data set [2], it took 22.7 ± 0.9 µM to reach half-maximal cytotoxicity (CC50 at 96 h).
In the same order, the values of `CCCc1ccc(Oc2cc(CN3CCOCC3)cc(OC)c2OCc2ccc(OC)cc2)cc1` [Compound 34] are 15.3 ± 1.9 µM and greater than 200 µM.
`CCCc1ccc(OCc2ccc(OC)cc2)c(Oc2ccc(CN3CCOCC3)cc2OC)c1` [Compound 35]: in data set [1], the “IC50 (μM) ± SD” value was “inactive”. This compound also had a CC50 at 96 h in data set [2] of 33.8 ± 4.9 µM.
Turning to `C=CCc1ccc(Oc2cc(CC=C)cc(OC)c2OCc2ccc(OC)cc2)cc1` [Compound 36], in data set [2], the CC50 at 96 h is greater than 200 µM.
Still for that read-out and setting: as for `C=CCc1ccc(Oc2cc(CC=C)cc(OC)c2O)cc1` [Compound 37], the figure is 123 ± 9.4 µM; as for `C=CCc1ccc(Oc2cc(CC=C)ccc2OCc2ccc(OC)cc2)c(OC)c1` [Compound 38], greater than 200 µM.
Still for that read-out and setting: as for `C=CCc1ccc(O)c(Oc2ccc(CC=C)cc2OC)c1` [Compound 39], the figure is 129 ± 5.2 µM.
The compound `CCCCCCCCCCCCCCCCOP(=O)([O-])OCC[N+](C)(C)C` [Milt., miltefosine, reference compound] gave an IC50 in data set [1] (Peritoneal macrophage, 96 h) of 6.5 ± 3 µM. Moreover, it took 120 ± 4.2 µM to reach half-maximal cytotoxicity in data set [2] (CC50 at 96 h).
